Measurements reported in patent publication US20090124572A1, “Iron-containing nutritional supplement” (priority 2007, published 2009).

What was measured:
Caco-2 cells = assay: In-solution treatment of Caco-2 cells, ferritin formation as index of iron uptake/bioavailability (Experiments 1 and 2); conditions: Experiment 1, 6-well plates, iron 20 μmol/L, AA 400 μmol/L, 20 hours
Protocol: Cell culture. Caco-2 cells were obtained from the American Type Culture Collection at passage 17 and used in experiments at passage 29-35. Cells were seeded at a density of 50,000 cells/cm^2 in collagen-treated 6-well or 24-well plates. The integrity of the monolayer was verified by optical microscopy. […] The cells were maintained in Dulbecco's Modified Eagle Medium (DMEM) plus 1% antibiotic/antimycotic solution, 25 mmol/L HEPES and 10% fetal bovine serum; the medium was changed every 2 days. Two days before the experiment, the growth medium was removed from each culture well, and the cell layer was washed and maintained with Minimum Essential Media (MEM) at pH 7.0. […] This enriched MEM contained less than 80 μg iron/L. Iron uptake experiments were conducted 13 days post-seeding.
Harvesting of Caco-2 cells for ferritin analysis. […] Ferritin concentration and total protein concentration were determined on an aliquot of the harvested cell suspension with a one-stage sandwich immunoradiometric assay and a colorimetric assay, respectively. […] Therefore, the ratio of ferritin/total protein expressed as ng ferritin/mg protein, was used as an index of the cellular iron uptake.
In-solution treatment. […] Cellular ferritin and total protein was then analyzed and compared among all treatments. […]

[1] = dissolved in water; cited from earlier work

Row | Molecule | ferritin formation in Caco-2 cells in the presence of ascorbic acid (Caco-2 cells) | pH of aqueous solution [1]
1 | [Cl][Fe]([Cl])[Cl] [FeCl3, ferric chloride] | significantly lower | –
2 | ferrous sulfate | – | about 2
